According to PubChem BioAssay (NCI):
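Briefly, cells in 96-well plates were exposed to five compound concentrations for 48 h, and endpoints were estimated by linear interpolation. Here, GI50 denotes the concentration required for 50% inhibition of growth. TGI denotes the concentration required for complete inhibition of growth.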

Experiments:
Test in all cases: NCI anticancer screen, dose series, 48 h
DLD-1 colon = tested on: DLD-1 colon
HCC-2998 colon = tested on: HCC-2998 colon
M14 melanoma = tested on: M14 melanoma
M19-MEL melanoma = tested on: M19-MEL melanoma
OVCAR-3 ovarian = tested on: OVCAR-3 ovarian
SK-OV-3 ovarian = tested on: SK-OV-3 ovarian
TK-10 renal = tested on: TK-10 renal
UACC-62 melanoma = tested on: UACC-62 melanoma
UO-31 renal = tested on: UO-31 renal
HS 578T breast = tested on: HS 578T breast

| Structure (SMILES) | TGI (DLD-1 colon) [µM] | TGI (HCC-2998 colon) [µM] | TGI (M14 melanoma) [µM] | TGI (M19-MEL melanoma) [µM] | TGI (OVCAR-3 ovarian) [µM] | TGI (SK-OV-3 ovarian) [µM] | TGI (TK-10 renal) [µM] | TGI (UACC-62 melanoma) [µM] | TGI (UO-31 renal) [µM] | TGI (HS 578T breast) [µM] | GI50 (HCC-2998 colon) [µM] | GI50 (HS 578T breast) [µM] | GI50 (M14 melanoma) [µM] | GI50 (OVCAR-3 ovarian) [µM] | GI50 (SK-OV-3 ovarian) [µM] | GI50 (TK-10 renal) [µM] | GI50 (UACC-62 melanoma) [µM] | GI50 (UO-31 renal) [µM] |
| --- | --- | --- | --- | --- | --- | --- | --- | --- | --- | --- | --- | --- | --- | --- | --- | --- | --- | --- |
| COC(=O)CCC(=O)CC1CC(=O)C2CCCN12 (centres undefined) | > 100 | > 100 | > 100 | > 100 | > 100 | > 100 | > 100 | > 100 | > 100 |  |  |  |  |  |  |  |  |  |
| O=c1[nH]c2cc(Cl)ccc2nc1/C(=N\O)C(O)c1ccc(Cl)cc1Cl (centres undefined) | > 100 | > 100 | > 100 | > 100 | > 100 | > 100 |  | > 100 | > 100 |  |  |  |  |  |  |  |  |  |
| COc1cccc(-n2c3nc(=O)n(C)c(=O)c-3nc3ccccc32)c1 | 96.1 | 38.9 | 27.7 | 6.1 | 8.8 | > 100 | > 100 | 19.5 | > 100 |  |  |  |  |  |  |  |  |  |
| O=C(Nc1cc(Cl)ccc1Cl)C(=O)C(c1cnc2ccccc2n1)[N+](=O)[O-] (centres undefined) | > 100 | > 100 | > 100 | > 100 | > 100 | > 100 | > 100 | > 100 | > 100 |  |  |  |  |  |  |  |  |  |
| O=C1[C@H]2ON(c3ccccc3)C(c3ccc(Cl)cc3)[C@H]2C(=O)N1c1ccc(Cc2ccc(N3C(=O)[C@@H]4ON(c5ccccc5)C(c5ccc(Cl)cc5)[C@@H]4C3=O)cc2)cc1 (some centres undefined) | > 100 | > 100 | 66.8 | > 100 | > 100 | > 100 | > 100 | > 100 | > 100 |  |  |  |  |  |  |  |  |  |
| COC(=O)/C(C#N)=C1\CCC(O)N1 (centres undefined) | > 100 | > 100 | > 100 | > 100 | > 100 | > 100 | > 100 | > 100 | > 100 |  |  |  |  |  |  |  |  |  |
| CN[C@@H](C)[C@H](NC)c1ccccc1 | > 100 | > 100 | > 100 | > 100 | > 100 | > 100 | > 100 | > 100 | > 100 |  |  |  |  |  |  |  |  |  |
| Cc1cc(C)c(C2[C@H]3C(=O)N(c4ccc(Cc5ccc(N6C(=O)[C@@H]7ON(c8ccccc8)C(c8c(C)cc(C)cc8C)[C@@H]7C6=O)cc5)cc4)C(=O)[C@H]3ON2c2ccccc2)c(C)c1 (some centres undefined) | > 100 | > 100 | > 100 | > 100 | > 100 | > 100 | > 100 | > 100 | > 100 |  |  |  |  |  |  |  |  |  |
| CN(C)C(=S)/N=c1\ss/c(=N\C(=S)N(C)C)n1-c1ccc(Cl)c(Cl)c1 |  | > 100 | > 100 | > 100 | > 100 | > 100 | > 100 | > 100 | > 100 |  |  |  |  |  |  |  |  |  |
| O=C1CC2C(=O)N(Cc3ccccc3)C1C=C2S(=O)(=O)c1ccccc1 (centres undefined) | > 100 | > 100 | > 100 | > 100 | > 100 | > 100 | > 100 | > 100 | > 100 |  |  |  |  |  |  |  |  |  |
| CC(=O)c1sc(-c2nc(C)c(C(=O)/C=C\c3ccc(/C=C\C(=O)c4sc(-c5nc(C)c(C(C)=O)s5)nc4C)cc3)s2)nc1C | > 100 | > 100 | > 100 | > 100 | > 100 | > 100 | > 100 | > 100 | > 100 |  |  |  |  |  |  |  |  |  |
| CC(C)(C=O)CC(C#N)/C(=N\NC(N)=O)C(=O)Nc1ccccc1C(N)=O (centres undefined) |  | > 100 | > 100 | > 100 | > 100 | > 100 | > 100 | > 100 | > 100 |  |  |  |  |  |  |  |  |  |
| C=CCNC(=O)N(CCC)CCCCC(NC(C)=O)C(=O)NCc1ccccc1 (centres undefined) |  | > 100 | > 100 | > 100 | > 100 | > 100 | > 100 | > 100 | > 100 |  |  |  |  |  |  |  |  |  |
| CCOC(=O)c1c[nH]c2oc(/C=N/N3CC(CN4CCOCC4)OC3=O)cc2c1=O (centres undefined) |  | > 100 | > 100 |  | > 100 | > 100 | > 100 | > 100 | > 100 | > 100 |  |  |  |  |  |  |  |  |
| COCCOc1cnc2ccn([C@H](C)c3nnc4c(F)cc(-c5cnn(C)c5)cn34)c(=O)c2c1 |  | > 100 | > 100 |  | > 100 | > 100 | > 100 | > 100 | > 100 | > 100 | > 100 | 82.7 | > 100 | > 100 | > 100 | > 100 | 56.4 | 70.6 |
| CC1=NN(C(=O)CC(=O)N(C(=O)c2ccccc2Cl)c2ccc(C)cc2)C(=O)C1N=Nc1ccc([N+](=O)[O-])cc1 (centres undefined) | > 66.1 | > 100 | > 100 |  | > 100 | 69.6 | > 100 | > 53.7 | > 93.6 |  |  |  |  |  |  |  |  |  |
| Nc1nc(CCl)nc(Nc2ccccc2)n1 | > 100 | 31.7 | 32.8 | 98.8 | 32.8 |  | 83.4 | 34.6 | 67.3 |  |  |  |  |  |  |  |  |  |
| O=C(Nc1ccc(-c2ccccc2)cc1)C1CCN(S(=O)(=O)c2ccccc2Cl)CC1 |  | > 100 | > 100 |  | > 100 | > 100 | 60.3 | > 100 | > 100 | 71.4 | 59.2 | 12.6 | 64.1 | 41.9 | 57.4 | 20.6 | 39.8 | 66.2 |
| COc1ccc(C2c3cc(OC)c(OC)cc3C(Cc3ccc([N+](=O)[O-])cc3)C2c2ccc([N+](=O)[O-])cc2)cc1OC (centres undefined) | > 100 | > 100 | > 100 | > 100 | > 100 |  | > 100 | > 100 | > 100 |  |  |  |  |  |  |  |  |  |
| CC(=O)/C=C/c1ccc(C#Cc2ccccc2)s1 |  | 27.8 | 29.1 |  | 29.6 | 31.1 | 32.9 | 31.5 | 27.3 | 56.3 | 14.7 | 23.9 | 15.7 | 15.5 | 17.3 | 16.8 | 17.5 | 14.3 |
| Cc1cc(I)cc(CN(C)CCCN2CCOCC2)c1O |  | > 100 | 32.3 |  | > 100 | > 100 | > 100 | 30.5 | 94.4 | > 100 | 35.4 | 13.5 | 16 | > 100 | 82.9 | 45.6 | 13.1 | 22.1 |
